Measurements taken from PubChem BioAssay (NCI).
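1) Cells in 96-well plates. 2) Compound, 48 h, 5 concentrations. 3) Linear interpolation between surrounding doses. 4) Unreached endpoint = highest concentration. Abbreviation: GI50, concentration required for 50% inhibition of growth. TGI: total growth inhibition.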

Assays:
Test in all cases: NCI tumour cell line growth inhibition, 48 h
COLO 205 colon = test system: COLO 205 colon
CAKI-1 renal = test system: CAKI-1 renal
HOP-92 NSCLC = test system: HOP-92 NSCLC
OVCAR-8 ovarian = test system: OVCAR-8 ovarian
OVCAR-5 ovarian = test system: OVCAR-5 ovarian
HT29 colon = test system: HT29 colon
SW-620 colon = test system: SW-620 colon
RPMI-8226 leukemia = test system: RPMI-8226 leukemia
MALME-3M melanoma = test system: MALME-3M melanoma
HL-60(TB) leukemia = test system: HL-60(TB) leukemia

SMILES | GI50 (COLO 205 colon) [µM] | TGI (COLO 205 colon) [µM] | GI50 (CAKI-1 renal) [µM] | TGI (CAKI-1 renal) [µM] | GI50 (HOP-92 NSCLC) [µM] | TGI (HOP-92 NSCLC) [µM] | GI50 (OVCAR-8 ovarian) [µM] | TGI (OVCAR-8 ovarian) [µM] | GI50 (OVCAR-5 ovarian) [µM] | TGI (OVCAR-5 ovarian) [µM] | GI50 (HT29 colon) [µM] | TGI (HT29 colon) [µM] | GI50 (SW-620 colon) [µM] | TGI (SW-620 colon) [µM] | GI50 (RPMI-8226 leukemia) [µM] | TGI (RPMI-8226 leukemia) [µM] | GI50 (MALME-3M melanoma) [µM] | TGI (MALME-3M melanoma) [µM] | TGI (HL-60(TB) leukemia) [µM] | GI50 (HL-60(TB) leukemia) [µM]
ClCc1ccccc1CSc1ncnc2nc[nH]c12 | > 60 | > 60 | > 60 | > 60 | > 60 | > 60 | > 60 | > 60 | > 60 | > 60 | > 60 | > 60 | > 60 | > 60 | > 60 | > 60 | > 60 | > 60 | – | –
CN1CCN(C(=S)N(C)C(=O)c2ccc(Cl)cc2)CC1 | – | > 100 | – | – | – | > 100 | – | > 100 | – | > 100 | – | > 100 | – | > 100 | – | > 100 | – | > 100 | > 100 | –
c1ccc(-c2nnc(-c3nn(-c4ccccc4)c4nc5ccccc5nc34)o2)cc1 | – | > 100 | – | > 100 | – | – | – | > 100 | – | > 100 | – | > 100 | – | > 100 | – | > 100 | – | > 100 | 85.2 | –
C[Si](C)(C)c1ccc(CC2(Cc3ccc([Si](C)(C)C)cc3)CCNC2)cc1 | – | 3.19 | – | 5.29 | – | 3.18 | – | 3.35 | – | 15.4 | – | 4.08 | – | 3.38 | – | – | – | 11.6 | > 100 | –
CC(=O)c1ccc(N(/C=C/C(=O)C(F)(F)F)CC(=O)c2ccc(Cl)c(Cl)c2)cc1 | 22.6 | 65 | 16.4 | 33.1 | 13.5 | 29 | 16.1 | 31.4 | 18.6 | 35.9 | 24.4 | > 100 | 18.3 | 34.8 | 9.64 | 36.6 | 11.7 | 25 | – | –
CC1=C(CCCOC(=O)NCCCl)C2=C(C)C3(CC3)[C@@](C)(O)C(=O)C2=C1 | 2.06 | 6.65 | – | – | 2.87 | 8.24 | 3.4 | > 100 | 3.13 | > 100 | 3.01 | 28.6 | 24.5 | > 100 | 8.4 | 40.1 | 1.85 | 4.22 | > 100 | 4.57
Clc1ccc(Cc2nc3cc4ccccc4cc3[nH]2)cc1 | 8.64 | > 100 | 6.55 | 69.9 | 19.5 | > 100 | 7.92 | 37.1 | 26.3 | > 100 | – | – | 6.55 | > 100 | 9.77 | > 100 | 26.8 | > 100 | > 100 | > 100
CCOC(=O)CCCO | – | – | – | – | – | > 100 | – | > 100 | – | > 100 | – | > 100 | – | > 100 | – | > 100 | – | > 100 | > 100 | –
